Test results reported in patent publication US20230016424A1, “HYBRID AMIDE DERIVATIVES OF AMPHOTERICIN B” (The Board of Trustees of the University of Illinois, priority 2019, published 2023).
≈ marks a conversion by molar mass, not a printed value.

Experiments:
[1] = UV-Vis sterol binding assay
Protocol: However, an alternative method was developed for reproducible formation of homogenous AmB and C2′epiAmB sterol sponge aggregates in vitro. Using these preparations, a quantitative UV-Vis and Principle Component (PCA) based assay for determining the apparent KDs for the binding of AmB and C2′epiAmB to ergosterol and cholesterol (FIGS. 5A-5D) was developed.
UV-Vis Binding Assay (FIG. 21A): The protocol for the sterol binding assay (UV-Vis) was developed in our lab. Compounds were dissolved in DMSO at a final concentration of 1 mM. Sterol were first dissolved in CHCl3 (>200 mM) and then diluted to 1 mM concentration with DMSO. To synthesize the complex 1 ul of compound solution was taken in a clean eppendorf tube (2 ml) and sterol solution (volume depends on the stoichiometry) was added to it and the volume was made up to 20 ul with DMSO. 0.98 ml of PBS buffer was added to the Eppendorf tube and mixed properly. The absorbance of the solution was measured after 30 mins of incubation.

[2] = system: 40 Aspergillus clinical isolates, including azole-resistant A. fumigatus, A. flavus, and A. terreus; assay: Antifungal testing against 40 Aspergillus clinical isolates (Fungus Testing Laboratory); type: cell-based
rats = assay: IV toxicity in rats (BUN, ALT/AST, mortality, Cmax); type: in vivo; details: IV 2, 10, and 17.5 mg/kg (the highest dose tested)
Protocol: >100 mg of C2′epiAmB was prepared, formulated it as the corresponding deoxycholate complex, and evaluated this derivative head-to-head with AmB-deoxycholate for toxicity and efficacy in animal models.

[3] = system: C. albicans SN250, C. albicans, C. krusei, C. glabrata, C. tropicalis, A. fumigatus 91, 1163, 1100; assay: Average MIC over the tested strains; type: cell-based
[4] = isothermal titration calorimetry (ITC) sterol binding
Text: (§1) This key discovery opened a path to the rational development of a non-toxic AmB variant. To probe its predicted role in sterol binding, the hydroxyl group was synthetically deleted at the C2′ position on the mycosamine appendage. […] Consistent with the sterol sponge model, this derivative retained good activity against yeast but, most importantly, was nontoxic to human red blood cells and primary (hREC) (FIG. 2B).
(§2) A practical 11-step synthesis of C2′epiAmB using a frontier site-selective acylation method was developed (FIG. 4). Wilcock, B. C. et al., Nat Chem 2012, 4 (12), 996-1003; Uno, B. E. A synthesis enabled understanding of Amphotericin B leading to derivatives with improved therapeutic indices. University of Illinois at Urbana-Champaign, 2014. The sterol binding and cell killing activities was then determined.

C. albicans = assay: Murine model of invasive candidiasis, neutropenic ICR/Swiss mice; type: in vivo; details: single IP injection, deoxycholate complex, 16 mg/kg dose
Text: Andes, D. et al., Antimicrobial agents and chemotherapy 2001, 45 (3), 922-6. In fact, the PD parameter that best correlates with outcome is Cmax-/MIC. The same was subsequently observed in a pulmonary model of invasive aspergillosis. Wiederhold, N. P. et al., Antimicrobial agents and chemotherapy 2006, 50 (2), 469-73.

[5] = system: A. fumigatus (AF293, A1163, ATC204305, AF91); type: cell-based
human erythrocytes = assay: MHC hemolysis assay; type: cell-based; details: hemolysis, human erythrocytes, 37° C. 2 hours
Protocol: MHC (FIG. 21B): The protocol for the hemolysis assay was adapted from the report of Paquet and coworkers (Chem. Eur. J. 2008, 14, 2465-2481). Whole human blood (sodium heparin) was purchased from Bioreclamation LLC (Westbury, N.Y.) and stored at 4° C. and used within two days of receipt. To a 2.0 mL eppendorf tube, 1 mL of whole human blood was added and centrifuged at 10,000 g for 2 minutes. The supernatant was removed and the erythrocyte pellet was washed with 1 mL of sterile saline and centrifuged at 10,000 g for 2 minutes. The saline wash was repeated for a total of three washes. The erythrocyte pellet was suspended in 1 mL of RBC buffer (10 mM NaH2PO4, 150 mM NaCl, 1 mM MgCl2, pH 7.4) to form the erythrocyte stock suspension.
Compounds were prepared as >15 mM stock solutions in DMSO and serially diluted to the following concentrations with DMSO: 7689, 5126, 2563, 2050, 1538, 1025, 769, 513, 384, 256, 205, 154, 103, 77, 51, 26 μM. To a 0.2 mL PCR tube, 24 μL of RBC buffer and 1 μL of compound stock solution were added, which gave final concentrations of […]. Positive and negative controls were prepared by adding 1 μL of DMSO to MilliQ water or RBC buffer, respectively to 0.2 mL PCR tube. To each PCR tube, 0.63 μL of the erythrocyte stock suspension was added and mixed by inversion. The samples were incubated at 37° C. for 2 hours. The samples were mixed by inversion and centrifuged at 10,000 g for 2 minutes. 15 μL of the supernatant from each sample was added to a 384-well place. Absorbances were read at 540 nm using a Biotek H1 Synergy Hybrid Reader (Wanooski, Vt.). Experiments were performed in triplicate and the reported MHC represents an average of three experiments.

C. albicans SN250 = assay: MIC; type: cell-based, Candida albicans
[6] = system: human red blood cells and primary hREC; assay: Toxicity to human cells; type: cell-based
Text: as §1, §2

C[C@@H]1[C@H](O)[C@@H](C)/C=C/C=C/C=C/C=C/C=C/C=C/C=C/[C@H](O[C@@H]2O[C@H](C)[C@@H](O)[C@H](N)[C@H]2O)C[C@@H]2O[C@](O)(C[C@@H](O)C[C@@H](O)[C@H](O)CC[C@@H](O)C[C@@H](O)CC(=O)O[C@H]1C)C[C@H](O)[C@H]2C(=O)O [C2′epiAmB, C2′epi-Amphotericin B]
Cholesterol Binding [1]: No
Times less potent than AmB [2]: 2-16 times
BUN, ALT/AST and mortality, rats (rats): no elevations in BUN or ALT/AST and no mortality
Average MIC ([3]; Table 13, C16 amides of C2’epiAmB): 9.03 mM
MIC ([3]; average over the 8 listed strains): >6.844 µM
Ergosterol binding by ITC [4]: bind ergosterol
Cholesterol binding by ITC ([4]; within the detection limits of ITC): not (detectably) cholesterol
Fungal burden, murine invasive candidiasis (C. albicans): outstanding reductions in fungal burden
Times less potent than AmB [5]: > 32 times
MHC (human erythrocytes): >500 µM
MIC C. albicans SN250 (C. albicans SN250): 0.5 µM (≈ 0.462 µg/mL)
Toxicity to human cells [6]: not human cells
